Test results taken from patent publication US9120749B2, “Quinoline derivatives and MELK inhibitors containing the same” (ONCOTHERAPY SCIENCE, INC., priority 2010, dated 2015).
Where a name gives a salt, the structure may show the parent alone. Read-outs that look alike come from different tables or passages of the source.

Experiments:
[1] = system: DU4475 cells; assay: Cell-based assay: anti-proliferative activity, Cell Counting Kit-8, 72 hours (DU4475)
[2] = system: A549 cells; assay: Cell-based assay: anti-proliferative activity, Cell Counting Kit-8, 72 hours (A549); settings: 72 hours
In short: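 A549 cells seeded in 96-well plates and exposed to candidate inhibitors for 72 hours. Growth measured with Cell Counting Kit-8; IC50 values calculated from the dose response.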

[3] = target: MELK (Homo sapiens, UniProt Q14680); assay: Kinase assay: MELK activity, phosphorylation of FITC-labeled histone H3 peptide measured by IMAP fluorescence polarization; type: biochemical; settings: read-out: IC50 (μM) (kinase assay)
MELK, sequence (Q14680 whole entry, looked up): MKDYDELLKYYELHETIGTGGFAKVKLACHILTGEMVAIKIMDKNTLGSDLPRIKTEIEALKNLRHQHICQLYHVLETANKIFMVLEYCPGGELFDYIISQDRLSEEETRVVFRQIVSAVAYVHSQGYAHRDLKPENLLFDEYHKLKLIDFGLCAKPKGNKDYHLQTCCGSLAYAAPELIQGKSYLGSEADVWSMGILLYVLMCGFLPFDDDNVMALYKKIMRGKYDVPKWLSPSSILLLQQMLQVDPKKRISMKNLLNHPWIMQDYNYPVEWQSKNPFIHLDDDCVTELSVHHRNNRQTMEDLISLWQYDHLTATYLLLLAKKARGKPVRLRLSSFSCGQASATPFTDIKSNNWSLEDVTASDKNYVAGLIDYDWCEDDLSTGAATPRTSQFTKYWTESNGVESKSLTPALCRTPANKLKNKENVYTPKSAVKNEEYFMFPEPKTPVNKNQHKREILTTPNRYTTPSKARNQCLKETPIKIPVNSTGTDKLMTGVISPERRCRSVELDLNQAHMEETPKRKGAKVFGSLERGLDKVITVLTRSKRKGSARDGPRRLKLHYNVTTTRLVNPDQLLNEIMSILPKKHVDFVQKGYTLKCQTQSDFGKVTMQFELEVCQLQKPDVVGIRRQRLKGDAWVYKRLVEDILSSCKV
In short: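 Compounds, serially diluted from 12.5 mM DMSO stocks to 1% final DMSO, were tested with FITC-labeled histone H3 peptide as substrate. The reaction was stopped with progressive binding solution. Fluorescence polarization was read after 0.5 hour at room temperature.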

[4] = system: 22Rv1 cells; assay: Cell-based assay: anti-proliferative activity, Cell Counting Kit-8, 72 hours (22Rv1)
[5] = system: T47D cells; assay: Cell-based assay: anti-proliferative activity, Cell Counting Kit-8, 72 hours (T47D)
In short: (§1)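 Anti-MELK western blot on crude lysates → MELK status per line. Cells plated 96-well, compound exposure, CCK-8 readout at 72 h; IC50 calculated.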

[6] = system: HT-1197 cells; assay: Cell-based assay: anti-proliferative activity, Cell Counting Kit-8, 72 hours (HT-1197, negative control without MELK expression); settings: HT1197 cells (negative control, no MELK expression), 72 hours
In short: as §1

[7] = MELK kinase assay, IMAP fluorescence polarization, 50 micro-M ATP

Row | SMILES | IC50 ([1]; Homo sapiens, DU-4475, 72 h) [µM] | IC50 ([2]; Homo sapiens, A549, 72 h) [µM] | IC50 [3, 7] [µM] | IC50 ([4]; Homo sapiens, 22Rv1, 72 h) [µM] | IC50 ([5]; Homo sapiens, T47D, 72 h) [µM] | IC50 ([6]; Homo sapiens, HT1197, 72 h) [µM] | IC50 ([1]; hydrochloride) [µM] | IC50 ([2]; hydrochloride) [µM] | IC50 ([3]; hydrochloride) [µM] | IC50 ([4]; hydrochloride) [µM] | IC50 ([5]; 72 hours, hydrochloride) [µM] | IC50 ([6]; hydrochloride) [µM] | IC50 [3] [µM] | IC50 ([3]; MELK kinase assay, IMAP fluorescence polarization, 50 micro-M ATP, hydrochloride) [µM]
1 | CC(=O)c1cnc2ccc(-c3cc(Cl)c(O)c(Cl)c3)cc2c1NC1CCCN(CCN(C)C)C1 (stereo not drawn) [Example 850, 1-(6-(3,5-dichloro-4-hydroxyphenyl)-4-(1-(2-(dimethylamino)ethyl)piperidin-3-ylamino)quinolin-3-yl)ethanone] | 0.32 | 0.89 | 0.0019 | 1.2 | 1.1 | 4 |  |  |  |  |  |  |  | 
2 | CC(=O)c1cnc2ccc(-c3cc(F)c(O)c(Cl)c3)cc2c1N[C@H]1CCC[C@@H](CN(C)C)C1 [Example 826, 1-(6-(3-chloro-5-fluoro-4-hydroxyphenyl)-4-((1S,3R)-3-((dimethylamino)methyl)cyclohexylamino)quinolin-3-yl)ethanone hydrochloride] | 0.22 | 0.54 | 0.0083 | 0.48 | 0.25 | 1.9 |  |  |  |  |  |  |  | 
3 | CCN(C)C[C@H]1CC[C@H](Nc2c(C(C)=O)cnc3ccc(-c4cc(Cl)c(O)c(Cl)c4)cc23)CC1 [Example 817, 1-(6-(3,5-dichloro-4-hydroxyphenyl)-4-((1R,4R)-4-((ethyl(methyl)amino)methyl)cyclohexylamino)quinolin-3-yl)ethanone] | 0.074 | 0.15 | 0.0014 | 0.12 | 0.097 | 11 |  |  |  |  |  |  |  | 
4 | CC(=O)c1cnc2ccc(-c3cc(Cl)c(O)c(Cl)c3)cc2c1Nc1cccc(CCN2CCN(C)CC2)c1 [Example 831, 1-(6-(3,5-dichloro-4-hydroxyphenyl)-4-(3-(2-(4-methylpiperazin-1-yl)ethyl)phenylamino)quinolin-3-yl)ethanone] | 0.12 | 0.32 | 0.0054 | 0.83 | 1.1 | 11 |  |  |  |  |  |  |  | 
5 | CC(=O)c1cnc2ccc(-c3cc(F)c(O)c(Cl)c3)cc2c1Nc1ccc(OCCN(C)C)nc1 [Example 848, 1-(6-(3-chloro-5-fluoro-4-hydroxyphenyl)-4-(6-(2-(dimethylamino)ethoxy)pyridin-3-ylamino)quinolin-3-yl)ethanone hydrochloride] | 0.16 | 0.29 | 0.011 | 0.44 | 0.14 | 5.3 |  |  |  |  |  |  |  | 
6 | CCC(=O)c1cnc2ccc(-c3cc(F)c(O)c(Cl)c3)cc2c1N[C@H]1CC[C@H](CN2CCCC2)CC1 [Example 846] | 0.071 | 0.13 | 0.0023 | 0.16 | 0.096 | 0.71 |  |  |  |  |  |  |  | 
7 | CC(=O)c1cnc2ccc(-c3cc(F)c(O)c(Cl)c3)cc2c1Nc1cccc(CCN2CCN(C)CC2)c1 [Example 830, 1-(6-(3-chloro-5-fluoro-4-hydroxyphenyl)-4-(3-(2-(4-methylpiperazin-1-yl)ethyl)phenylamino)quinolin-3-yl)ethanone] | 0.26 | 0.73 | 0.019 | 1.3 | 1.5 | 15 |  |  |  |  |  |  |  | 
8 | CC(=O)c1cnc2ccc(-c3cc(Cl)c(O)c(Cl)c3)cc2c1N[C@H]1CC[C@H](CN2CCCC2)CC1 [Example 768, 1-(6-(3,5-dichloro-4-hydroxyphenyl)-4-(trans-4-(pyrrolidin-1-ylmethyl)cyclohexylamino)quinolin-3-yl)ethanone hydrochloride] |  |  |  |  |  |  | 0.07 | 0.13 | 0.0015 | 0.11 | 0.11 | 28 |  | 
9 | COc1cc(-c2ccc3ncc(C(=O)C4CC4)c(NC4CCN(C5CCNC5)CC4)c3c2)cc(Cl)c1O (stereo not drawn) [Example 764, (6-(3-chloro-4-hydroxy-5-methoxyphenyl)-4-(1-(pyrrolidin-3-yl)piperidin-4-ylamino)quinolin-3-yl)(cyclopropyl)methanone] | 0.18 | 1.3 |  | 0.95 | 0.18 | 5.3 |  |  |  |  |  |  | 0.0029 | 
10 | CNC1CCCN(c2ccc(Nc3c(C(C)=O)cnc4ccc(-c5cc(F)c(O)c(Cl)c5)cc34)cn2)C1 (stereo not drawn) [Example 815, 1-(6-(3-chloro-5-fluoro-4-hydroxyphenyl)-4-((6-(3-(methylamino)piperidin-1-yl)pyridin-3-yl)amino)quinolin-3-yl)ethanone trihydrochloride] | 0.041 | 0.041 | 0.0018 | 0.034 | 0.016 | 0.052 |  |  |  |  |  |  |  | 
11 | CC(=O)c1cnc2ccc(-c3cc(Cl)c(O)c(Cl)c3)cc2c1N[C@H]1CCC[C@H](CCN(C)C)C1 [Example 861, 1-(6-(3,5-dichloro-4-hydroxyphenyl)-4-(((1S,3R)-3-(2-(dimethylamino)ethyl)cyclohexyl)amino)quinolin-3-yl)ethanone hydrochloride] | 0.19 | 0.25 | 0.0032 | 0.24 | 0.22 | 1 |  |  |  |  |  |  |  | 
12 | CCC(=O)c1cnc2ccc(-c3cc(Cl)c(O)c(Cl)c3)cc2c1N[C@H]1CC[C@H](CN2CCCC2)CC1 [Example 843] | 0.057 | 0.15 | 0.0016 | 0.19 | 0.15 | 4.2 |  |  |  |  |  |  |  | 
13 | CNC1CCN(c2ccc(Nc3c(C(=O)C4CC4)cnc4ccc(-c5cc(Cl)c(O)c(Cl)c5)cc34)cn2)C1 (stereo not drawn) [Example 804, cyclopropyl(6-(3,5-dichloro-4-hydroxyphenyl)-4-((6-(3-(methylamino)pyrrolidin-1-yl)pyridin-3-yl)amino)quinolin-3-yl)methanone trihydrochloride] | 0.042 | 0.17 |  | 0.1 | 0.088 | 1.4 |  |  |  |  |  |  | 0.002 | 
14 | CC(=O)c1c(C)nc2ccc(-c3cc(Cl)c(O)c(Cl)c3)cc2c1Nc1ccc(N2CCN(C)CC2)nc1 [Example 838, 1-(6-(3,5-dichloro-4-hydroxyphenyl)-2-methyl-4-(6-(4-methylpiperazin-1-yl)pyridin-3-ylamino)quinolin-3-yl)ethanone hydrochloride] | 14 | 11 | 0.097 | 7.2 | 17 | 25 |  |  |  |  |  |  |  | 
15 | CN(C)CCN1CCC(Nc2c(C(=O)C3CC3)cnc3ccc(-c4cc(F)c(O)c(Cl)c4)cc23)CC1 [Example 822, (6-(3-chloro-5-fluoro-4-hydroxyphenyl)-4-(1-(2-(dimethylamino)ethyl)piperidin-4-ylamino)quinolin-3-yl)(cyclopropyl)methanone] | 0.16 | 0.48 | 0.0031 | 0.43 | 0.29 | 2.5 |  |  |  |  |  |  |  | 
16 | CC(=O)c1cnc2ccc(-c3cc(Cl)c(O)c(Cl)c3)cc2c1N[C@H]1CC[C@H](CN2CCCC2)CC1 [Example 767] | 0.083 | 0.16 |  | 0.15 | 0.12 | 24 |  |  |  |  |  |  | 0.0018 | 
17 | CCC(=O)c1cnc2ccc(-c3cc(Cl)c(O)c(OC)c3)cc2c1Nc1ccc(N2CCC(N)C2)nc1 (stereo not drawn) [Example 775, 1-(4-(6-(3-aminopyrrolidin-1-yl)pyridin-3-ylamino)-6-(3-chloro-4-hydroxy-5-methoxyphenyl)quinolin-3-yl)propan-1-one] | 0.065 | 0.049 |  | 0.12 | 0.049 | 0.75 |  |  |  |  |  |  | 0.0034 | 
18 | CC(=O)c1cnc2ccc(-c3cc(F)c(O)c(Cl)c3)cc2c1N[C@H]1CC[C@H](CN2CCNCC2)CC1 [Example 783, 1-(6-(3-chloro-5-fluoro-4-hydroxyphenyl)-4-((trans-4-(piperazin-1-ylmethyl)cyclohexyl)amino)quinolin-3-yl)ethanone dihydrochloride] | 0.057 | 0.2 |  | 0.087 | 0.027 | 4.2 |  |  |  |  |  |  | 0.0088 | 
19 | COc1cc(-c2ccc3ncc(C(C)=O)c(N[C@H]4CC[C@H](CN5CCC[C@@H]5CO)CC4)c3c2)cc(Cl)c1O [Example 811] | 0.38 | 0.28 |  | 0.45 | 0.49 | 5.4 |  |  |  |  |  |  | 0.0027 | 
20 | CC(=O)c1cnc2ccc(-c3cc(Cl)c(O)c(Cl)c3)cc2c1Nc1ccc(N2CCC(N(C)C)C2)nc1 (stereo not drawn) [Example 855, 1-(6-(3,5-dichloro-4-hydroxyphenyl)-4-((6-(3-(dimethylamino)pyrrolidin-1-yl)pyridin-3-yl)amino)quinolin-3-yl)ethanone hydrochloride] |  |  |  |  |  |  | 0.23 | 0.38 |  | 0.64 | 0.26 | 73 |  | 0.0021
21 | CC(=O)c1cnc2ccc(-c3cc(F)c(O)c(Cl)c3)cc2c1N[C@H]1CC[C@H](CN2CCCC(N)C2)CC1 (stereo partly drawn) [Example 818] | 0.071 | 0.14 | 0.0043 | 0.064 | 0.022 | 2.7 |  |  |  |  |  |  |  | 
